Experimental data reported in patent US6379670B1, “Methods for treatment of multiple sclerosis using peptide analogs of human myelin basic protein” (Neurocrine Biosciences, Inc., priority 1994, dated 2002).
“And” between values parts separate entries of the source, which are not always exact repeats. Equal values may be shown once. Non-standard residues stand in square brackets, D forms with d. No end group written: not given here.

How the values were obtained:
[1] = test system: draining lymph node T cells of SJL mice; experiment: Induction of Th2 response in SJL mice, ex vivo lymph node cell proliferation; set-up: species or system mouse
Protocol: SJL/J female mice (3 per group) were injected weekly on days 0, 7, 14 and 21 subcutaneously with 20 mg/kg of NBI-5788 in the flanks. On day 28, the mice were sacrificed, the draining lymph node removed, a single cell suspension was made and the ability of the cells to proliferate in response to 25 μM NBI-5788 was determined. The data, shown in FIG. 28, represent the mean of triplicate wells.

[2] = test system: T cell lines LW 80, 88, 90 and 93; experiment: Specificity and phenotype of APL-reactive T cell lines from patient; type: cell-based, human; conditions: 25 μg/ml antigen
Protocol: Four cell cultures from one patient ([…], 32% frequency) showing a response (> three-fold over background) were expanded into cell lines (LW 80, 88, 90 and 93) by incubation in IL-2 for 11-14 days (1-2 passages). Once sufficient cells had grown up, they were cultured with either medium alone or 25 μg/ml of either whole MBP, MBP (83-99) or APL NBI-5788. After 24 hours, the supernatants were collected and the level of cytokines determined (see FIGS. 22 to 26). The remaining cultures were pulsed with radiolabeled thymidine and the extent of incorporation determined.

EAE in Lewis rats = experiment: Treatment of MBP(83-99)-induced EAE in Lewis rats with peptide analogs (subcutaneous); type: in vivo, Lewis rat
Protocol: In this system, experimental allergic encephalomyelitis (EAE) was induced in twelve female Lewis rats by injection of MBP(83-99) peptide in complete Freund's adjuvant (CFA) at the base of the tail. Nine days later, rats were divided into two groups of six animals and subcutaneously injected with 13.2 mg/kg of either peptide analog or a control peptide, sperm whale myoglobin (SWM) (110-121). Animals were monitored daily for disease symptoms and scored in a blinded fashion on a nonlinear ascending scale of 0-4 with increments denoting increasing paralysis. Each individual score was averaged with group cohorts to obtain the mean clinical score.

[3] = test system: Dr2a restricted human T cell clone reactive to MBP; experiment: Human T cell proliferation, Dr2a restricted clone; type: cell-based
Protocol: (§1) Human T cells reactive to MBP (83-99) may alternatively be used to measure the ability of the peptide analog to inhibit proliferation of T cells induced by native MBP (83-99) peptide. MBP-specific T cells may be obtained as previously described by Martin et al., J. Immunol. 148:1359-1366, 1992. Briefly, T cell lines are established by culture of human T cells with irradiated, DR-matched peripheral blood cells in MEM supplemented with 2 mM L-glutamine, 50 μg/ml gentamicin, penicillin and streptomycin, 100 U/ml rIL-2, and 10% human AB negative serum. Proliferation of these T cell lines is stimulated by culturing a clone with varying concentration (1.1-30 μM) of native […] peptide, 50 μM of the peptide analog or SWM peptide, in the presence of irradiated, DR matched peripheral blood cells, following incubation for approximately 60 hours, the cells are pulsed with ^3H-thymidine for 12 hours and harvested. The amount of incorporated ^3H-thymidine is measured.
The ability of the peptide analogs NBI-5719, 5748, 5765, 5788 and 5789 (SEQ ID NOs: 4-8 respectively) to affect human T cell proliferation was assessed. […] The amount of tritiated thymidine incorporated was measured, and the data represented as the mean plus or minus the standard error of the mean of replicate samples.
The potency of NBI-5788 (SEQ ID NO:7) was then determined by varying concentrations of the APL. […]

[4] = test system: peripheral blood cells of MS patients; experiment: Frequency of APL-responsive peripheral blood T cells after dosing of MS patients (split-well); type: in vivo, human
Protocol: Patients received either 10 or 20 mg of APL NBI-5788 (weekly for four weeks). Peripheral blood cells were collected from four patients approximately one year after dosing, as well as from 14 MS patients who had not received the APL and from two normal, healthy volunteers. The frequency of response to the peptide was determined using the split-well technique. Cells were seeded in 48 wells/plate, as well as 12 control wells without antigenic stimulation, at a density of 1×10^5 cells/well. Cells were set up in IMDM+10% human plasma pool+penicillin/streptomycin 100 U/ml+gentamycin 50 μg/ml +2 mM L-glutamine (or complete media, CM). Peptide antigen (25 μg) was added and then included for no more than one feeding with media. At day 12, the medium was changed to CM without IL-2. Two days later, the split-wells were established. The wells were resuspended with a multichannel pipetor, 100 μl of the cell suspension was transferred to adjacent wells on a new plate (daughter plate) and mixed with 100 μl of media containing 1×10^5 antigen presenting cells (peripheral blood lymphocytes, PBL irradiated with 3000 R in CM with or without antigen; 25 μg/ml). After 48 hours of culturing, 100 μl of supernatant was removed from the daughter plate for later cytokine determination and stored at -70° C.
For the proliferation assay, ^3H-thymidine (0.5 μCi) was added to the daughter plate and the plates reincubated for an additional 8 hours. The wells were then harvested onto filter mats and the level of ^3H-thymidine incorporation determined using beta scintillation. Counts greater than three-fold over background were considered positive.

[5] = test system: Dr2b restricted human T cell clones reactive to MBP; experiment: Human T cell proliferation, Dr2b restricted clones; type: cell-based
Protocol: as §1
The ability of the peptide analogs NBI-5719, 5748, 5765, 5788 and 5789 (SEQ ID NOs: 4-8 respectively) to affect human T cell proliferation was assessed. A constant amount of peptide analog or the control peptide SWM (50 μM) was cultured with varying concentrations of native MBP(83-99) peptide (1.1-30 μM) in the presence of irradiated, DR matched peripheral blood cells and T cell clones derived from various MS patients. Human T cells (1×10^6) were cultured with DR matched, irradiated peripheral blood cells (PBL, 5×10^6) in medium containing IMDM supplemented with 3 μM MBP83-99, 2 mM L-glutamine, 50 μg/ml gentamicin penicillin/streptomycin, 100 U/ml r1L-2 and 10% human AB-negative serum. Cells were cultured for approximately 60 hours, pulsed with tritiated thymidine for 12 hours, and harvested. The amount of tritiated thymidine incorporated was measured, and the data represented as the mean plus or minus the standard error of the mean of replicate samples.
The ability of the peptide analog to inhibit the proliferative response of MBP-reactive T cells isolated from Dr2b (DrB1* 1501) individuals was determined. A constant amount of NBI-5788 (50 μM) was cultured with varying concentrations of native peptide (1.1-30 μM) in the presence of irradiated, DR matched peripheral blood cells and T cell clones derived from various MS patients.

Substance: MBP(83-99) (83E>a, 84N>K, 89F>L, and 91K>A) ([dA]KPVVHLFANIVTPRTP) [NBI-5788]
- immune response induced by repeated dosing ([1]; 20 mg/kg subcutaneously on days 0, 7, 14 and 21, ex vivo proliferation to 25 μM NBI-5788, FIG. 28): induces a Th2 response
- response with successive weekly doses ([1]; four doses at weekly intervals): stronger response after each subsequent dose
- thymidine incorporation of T cell line ([2]; Line 80 of patient): 25,696 ± 408 cpm
- thymidine incorporation of T cell line ([2]; Line 88 of patient): 11,603 ± 424 cpm
- thymidine incorporation of T cell line ([2]; Line 90 of patient): 25,317 ± 8,221 cpm
- thymidine incorporation of T cell line ([2]; Line 93 of patient): 16,197 ± 2,095 cpm
- reduction of disease severity compared to the control group (EAE in Lewis rats; 13.2 mg/kg subcutaneously on day 9, FIG. 9): about 50%
- effect on EAE disease severity versus control peptide (EAE in Lewis rats; 13.2 mg/kg subcutaneously on day 9, FIGS. 10 and 11): significantly reduced the severity and duration of the disease
- inhibition of proliferative response of Dr2a restricted T cell clone to MBP(83-99) ([3]; 50 μM peptide, MBP(83-99) 1.1-30 μM, FIGS. 13 and 14): inhibited the ability of a human Dr2a restricted T cell clone to respond
- inhibition of response of Dr2a T cell line to MBP(83-99), potency ([3]; APL 2, 10 or 50 μM, effect at both 10 and 50 μM, SWM 50 μM, FIG. 15): significantly altered the ability of the Dr2a T cell line to respond to MBP(83-99)
- Percent Reactivity (frequency of APL NBI-5788-reactive T cells) ([4]; 10 mg (n = 1)): 23%
- frequency of APL responsive wells (SI>3), individual patient ([4]; 10 mg weekly for four weeks, about one year after dosing): 23%
- Percent Reactivity (frequency of APL NBI-5788-reactive T cells) ([4]; 20 mg (n = 3)): 39 ± 18%
- frequency of APL responsive wells (SI>3), individual patients ([4]; 20 mg weekly for four weeks, about one year after dosing, listed as APL): 11% and 32% and 72%
- APL specific lines from treated patients cross reacting with native MBP (83-99) ([4]; human, in vivo): 6/31
- APL specific lines from treated patients reacting with whole MBP ([4]; human, in vivo): 4/31
- inhibition of response of Dr2b T cell clones to MBP peptide ([5]; 50 μM, three different T cell lines, FIGS. 16-18): inhibited the ability of the T cell clones to respond to MBP peptide in a concentration dependent fashion
- inhibition of MBP-dependent proliferation of clone 5F6 ([5]; Dr2b restricted clone 5F6, 50 μM, FIG. 19): inhibited the MBP-dependent proliferation in a concentration dependent fashion
